pIC50: −log10 of the molar value. Bounds are passed on as bounds.

Holding throughout (format): cell-based
One experiment relates to Capan-1. Kind of experiment: MTS cell growth inhibition assay, Capan-1. The settings on record: Homo sapiens, Capan-1, Pancreas; for inhibition at 200 µM: read-out: Mean Percent Response at 200 μM (percent of cell growth inhibited); for pIC50: mean of 2 independent trials. As for the experimental part: (§1) Activity Of 6-Methyloxamethyl Exemestane Compounds Against Cancer Cell Lines. Cancer-derived cell lines were used for the following growth inhibition assay. The ability of the compound of Formula (B) above and the compound of Formula (D) above to inhibit cancer-derived cell growth was compared to exemestane as a control.
(§2) Cell viability is determined using the MTS assay. This calorimetric procedure measures conversion of the MTS reagent (a tetrazoleum salt) to formazan by living cells. Formazan production is quantified by spectrophotometric measurement at 490 nm and is proportional to viable cell number. Cells are cultured and treated. Following treatment, 100 μl of growth medium is removed and cells incubated with 20 μl CellTiter 96® AQueous One Solution Reagent (1.9 mg/ml in PBS, pH 6.0) for 1-3 hours at 37° C. Absorbance (OD) values are measured using a μQuant microplate reader at a single wavelength of 490 nm.
(§3) Additional assays were performed to evaluate the growth-inhibiting activity of the compound of Formula (B) above and the compound of Formula (D) compared to exemestane as a control.

In the next experiment the test system is Capan-2. Description: MTS cell growth inhibition assay, Capan-2. The following applies: Homo sapiens, Capan-2, Pancreas; for inhibition at 200 µM: read-out: Mean Percent Response at 200 μM (percent of cell growth inhibited); for pIC50: mean of 2 independent trials. The method, then:
as §1, §2, §3

A further experiment relates to HT-29. Description: MTS cell growth inhibition assay, HT-29. The settings on record: Homo sapiens, HT-29, Colon; for inhibition at 200 µM: read-out: Mean Percent Response at 200 μM (percent of cell growth inhibited); for pIC50: mean of 2 independent trials. The method, then:
as §1, §2, §3

The next experiment relates to PC-3. Description: MTS cell growth inhibition assay, PC-3. The following applies: Homo sapiens, PC-3, Prostrate; for inhibition at 200 µM: read-out: Mean Percent Response at 200 μM (percent of cell growth inhibited); for pIC50: mean of 2 independent trials. The method, then:
as §1, §2, §3

Another experiment has as its system NIH: H23. Kind of experiment: MTS cell growth inhibition assay, NIH: H23. The settings on record: NIH: H23, Lung; for inhibition at 200 µM: read-out: Mean Percent Response at 200 μM (percent of cell growth inhibited); for pIC50: mean of 2 independent trials. The method, then:
as §1, §2, §3

In another experiment the test system is MCF-7. Description: MTS cell growth inhibition assay, MCF-7. The following applies: Homo sapiens, MCF7, MCF-7, Breast; for inhibition at 200 µM: read-out: Mean Percent Response at 200 μM (percent of cell growth inhibited); for pIC50: mean of 2 independent trials. As for the experimental part:
as §1, §2, §3

For the next experiment, the system named is NIH: OVCAR-3. Kind of experiment: MTS cell growth inhibition assay, NIH: OVCAR-3. The settings on record: Homo sapiens, NIH: OVCAR-3, Ovarian; for inhibition at 200 µM: read-out: Mean Percent Response at 200 μM (percent of cell growth inhibited); for pIC50: mean of 2 independent trials. The method, then: as §1, §2, §3
Experiment [1] relates to a variety of cancer cell lines. Kind of experiment: Growth inhibition across the cancer cell line panel. The following applies: for activity against cancer cell lines, in words: text summary of Tables 1-3. The method, then:
as §1, §2, §3

The next experiment concerns MDA-MB-231. Kind of experiment: MTS cell growth inhibition assay, MDA-MB-231. The following applies: Homo sapiens, MDA-MB-231, Breast; for inhibition at 200 µM: read-out: Mean Percent Response at 200 μM (percent of cell growth inhibited); for pIC50: mean of 2 independent trials. The method, then: as §1, §2, §3
In a further experiment the test system is MV 522. Kind of experiment: MTS cell growth inhibition assay, MV 522. The following applies: MV522, MV 522, Lung; for inhibition at 200 µM: read-out: Mean Percent Response at 200 μM (percent of cell growth inhibited); for pIC50: mean of 2 independent trials. As for the experimental part:
as §1, §2, §3

The subject of the next experiment is SK-OV-3. Kind of experiment: MTS cell growth inhibition assay, SK-OV-3. The following applies: Homo sapiens, SK-OV-3, Ovarian; for inhibition at 200 µM: read-out: Mean Percent Response at 200 μM (percent of cell growth inhibited); for pIC50: mean of 2 independent trials. As for the experimental part: as §1, §2, §3

For `COC[C@@H]1C[C@@H]2[C@H](CC[C@]3(C)C(=O)CC[C@@H]23)[C@@]2(C)C=CC(=O)C=C12` [Exemestane 6R], the inhibition at 200 µM with Capan-1 came out at 28%; in the experiment with Capan-2, 46%; in the experiment with HT-29 it was 80%; with PC-3, 78%; in the experiment with NIH: H23, 65%; in the experiment with MCF-7, 56%. In addition, the inhibition at 200 µM was 78% in the experiment with NIH: OVCAR-3; 95 to 98% in [1] (see Table 2, 200 μM, read-out: inhibition against a variety of cancer cell lines); 95% in the experiment on MDA-MB-231; 96% in the experiment with MV 522; 98% in the experiment on SK-OV-3. Moreover, the pIC50 is 3.75 in the experiment with Capan-1; 3.98 in the experiment on Capan-2; 3.96 with HT-29; 3.97 with PC-3; 3.97 with NIH: H23; below 3.70 in the experiment on MCF-7. Further, the pIC50 is 4.27 in the experiment with NIH: OVCAR-3, 4.11 in the experiment with MDA-MB-231, 4.02 with MV 522 and 3.97 with SK-OV-3.
As to `COC[C@H]1C[C@@H]2[C@H](CC[C@]3(C)C(=O)CC[C@@H]23)[C@@]2(C)C=CC(=O)C=C12` [Exemestane 6S], the inhibition at 200 µM is 5% with Capan-1; 15% with Capan-2; 8% in the experiment with HT-29; 0% in the experiment on PC-3; 12% in the experiment on NIH: H23; 0% in the experiment on MCF-7. Also, the inhibition at 200 µM in the experiment with NIH: OVCAR-3 came out at 6%; in the experiment on MDA-MB-231 it was 21%; with MV 522, 19%; with SK-OV-3, 0.3%. Further, the pIC50 in the experiment on Capan-1, in the experiment with Capan-2, with HT-29, in the experiment on PC-3, with NIH: H23 and in the experiment with MCF-7 was below 3.70 in each case. The pIC50 in the experiment on NIH: OVCAR-3, in the experiment with MDA-MB-231, in the experiment with MV 522 and in the experiment on SK-OV-3 was below 3.70 in each case. Besides, in experiment [1], the “activity against cancer cell lines, in words” value was “works best against cell lines that are estrogen (−) and/or aromatase (+)”.
`C=C1C[C@@H]2[C@H](CC[C@]3(C)C(=O)CC[C@@H]23)[C@@]2(C)C=CC(=O)C=C12` [Exemestane, 6-methylenandrosta-1,4-diene-3,17-dione]: the inhibition at 200 µM in the experiment with Capan-1 stood at 74%; in the experiment on Capan-2, 56%; in the experiment with HT-29, 75%; in the experiment on PC-3 it was 67%; with NIH: H23 it was 81%; in the experiment on MCF-7, 68%. The inhibition at 200 µM with NIH: OVCAR-3 came to 88%; with MDA-MB-231 it was 67%; with MV 522, 79%; in the experiment on SK-OV-3 it was 85%. Moreover, the negative logarithm of the IC50 (pIC50) is 4.01 in the experiment on Capan-1; 4.03 with Capan-2; 3.99 with HT-29; 3.98 with PC-3; 4.30 with NIH: H23; 4.02 with MCF-7. The pIC50 in the experiment on NIH: OVCAR-3 was 4.14; in the experiment with MDA-MB-231, 4.19; in the experiment on MV 522, 3.99; in the experiment with SK-OV-3, 4.11. Moreover, the “activity against cancer cell lines, in words” value in experiment [1] is given as “marginal activity”.

Usually pIC50 stands for the IC50 on a negative log10 scale, so that one unit is a factor of ten. A lower pIC50 goes with a large IC50.

Source of the values: patent US7846918B2, “Exemestane compounds, compositions and related methods of use” (Endece, LLC, priority 2005, dated 2010).
